Data taken from ChEMBL document CHEMBL1201862, “PubChem BioAssay data set” (2004).
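Assay format: 96-well plates, 48-hour exposure. Here, GI50 denotes the concentration required for 50% inhibition of growth.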 Active and inactive are the calls of the source. No stated cut-off is given here; in the data, active = GI50 up to about 1.1 µM and inactive = higher.

How the values were obtained:
Assay in all cases: DTP human tumour cell line panel, 48 h
786-0 = system: 786-0
DMS-273 = system: DMS-273
DU-145 = system: DU-145
EKVX = system: EKVX
HCT-15 = system: HCT-15
HL-60 = system: HL-60
HOP-62 = system: HOP-62
HT-29 = system: HT-29
Hs-578T = system: Hs-578T
KM12 = system: KM12
MDA-N = system: MDA-N
MOLT-4 = system: MOLT-4
Malme-3M = system: Malme-3M
NCI-H460 = system: NCI-H460
OVCAR-4 = system: OVCAR-4
OVCAR-8 = system: OVCAR-8
SK-MEL-5 = system: SK-MEL-5
SNB-19 = system: SNB-19
SW-620 = system: SW-620
UACC-257 = system: UACC-257

Row | SMILES | GI50 (786-0) | GI50 (DMS-273) | GI50 (DU-145) | GI50 (EKVX) | GI50 (HCT-15) [µM] | GI50 (HL-60) | GI50 (HOP-62) | GI50 (HT-29) | GI50 (Hs-578T) | GI50 (KM12) | GI50 (MDA-N) | GI50 (MOLT-4) | GI50 (Malme-3M) | GI50 (NCI-H460) | GI50 (OVCAR-4) | GI50 (OVCAR-8) | GI50 (SK-MEL-5) | GI50 (SNB-19) | GI50 (SW-620) | GI50 (UACC-257)
1 | COc1cc(Cn2c(=S)ss/c2=N\C(=S)N(C)C)cc(OC)c1OC | 7.36 µM (inactive) | 4.41 µM (inactive) | > 28.5 µM (inactive) | > 81.5 µM (inactive) | 3.57 | 2.05 µM (inactive) | 13.3 µM (inactive) | 4.04 µM (inactive) | 2.7 µM (inactive) | 2.64 µM (inactive) | 1.1 µM (active) | 8.91 µM (inactive) | 3.21 µM (inactive) | 4.16 µM (inactive) | 48.4 µM (inactive) | 52.6 µM (inactive) | 2.26 µM (inactive) | 46.1 µM (inactive) | 2.81 µM (inactive) | 10.6 µM (inactive)
2 | COc1cc2c(cc1OC)C(Cl)C(c1ccc(Br)cc1)=C2Cl (stereo not given) | 3.94 µM (inactive) | 14.3 µM (inactive) | 11.3 µM (inactive) | 10.6 µM (inactive) | 8.18 | 5.46 µM (inactive) | 17.9 µM (inactive) | 13.3 µM (inactive) | 6.19 µM (inactive) | 16.3 µM (inactive) | 3.23 µM (inactive) | 4.24 µM (inactive) | 15 µM (inactive) | 8.32 µM (inactive) | 13.8 µM (inactive) | 10.1 µM (inactive) | 14.4 µM (inactive) | 16.7 µM (inactive) | 9.51 µM (inactive) | 15.1 µM (inactive)
